Reference: ChEMBL document CHEMBL2029307, “Identification of aryl dihydrouracil derivatives as palm initiation site inhibitors of HCV NS5B polymerase” (Bioorg Med Chem Lett, 2012)
Each block holds one compound with its values, some of them ahead of it.

How the values were obtained:
Hepatitis C virus [1] = assay: Inhibition of HCV genotype 1b patient isolate recombinant NS5B polymerase expressed in Escherichia coli DH5alpha assessed as inhibition of [3H]UTP incorporation after 2 hrs by scintillation counting; parameters: species or system Hepatitis C virus subtype 1b
[2] = Inhibition of HCV genotype 1a H77 recombinant NS5B polymerase expressed in Escherichia coli DH5alpha assessed as inhibition of [3H]UTP incorporation after 2 hrs by scintillation counting; parameters: species or system Hepatitis C virus (isolate H77)
[3] = Inhibition of HCV genotype 1b BK recombinant NS5B polymerase expressed in Escherichia coli DH5alpha assessed as inhibition of [3H]UTP incorporation after 2 hrs by scintillation counting; parameters: species or system Hepatitis C virus (isolate BK)
[4] = Inhibition of HCV genotype 2a NS5B polymerase assessed as inhibition of [3H]UTP incorporation after 2 hrs by scintillation counting; parameters: species or system Hepatitis C virus subtype 2a
[5] = Inhibition of HCV genotype 3a NS5B polymerase assessed as inhibition of [3H]UTP incorporation after 2 hrs by scintillation counting; parameters: species or system Hepatitis C virus subtype 3a
Hepatitis C virus [6] = assay: Antiviral activity against HCV genotype 1b infected in HuH7 cells by SEAP reporter gene assay; format: functional, organism-based, Hepacivirus hominis; settings: Huh-7
[7] = Cytotoxicity against human HuH7 cells by MTT assay; format: cell-based, Huh-7; settings: read-out: TD50 (the source's name)
[8] = system: Hepatitis C virus subtype 1a; assay: Resistance ratio of IC50 for HCV genotype 1a NS5B polymerase C316Y mutant to IC50 for HCV genotype 1a wildtype NS5B polymerase
[9] = system: Hepatitis C virus subtype 1a; assay: Resistance ratio of IC50 for HCV genotype 1a NS5B polymerase M414T mutant to IC50 for HCV genotype 1a wildtype NS5B polymerase
[10] = system: Hepatitis C virus subtype 1a; assay: Resistance ratio of IC50 for HCV genotype 1a NS5B polymerase T448Y mutant to IC50 for HCV genotype 1a wildtype NS5B polymerase
[11] = system: Hepatitis C virus subtype 1a; assay: Resistance ratio of IC50 for HCV genotype 1a NS5B polymerase M423T mutant to IC50 for HCV genotype 1a wildtype NS5B polymerase
[12] = system: Hepatitis C virus subtype 1a; assay: Resistance ratio of IC50 for HCV genotype 1a NS5B polymerase P495A mutant to IC50 for HCV genotype 1a wildtype NS5B polymerase
[13] = Inhibition of HCV genotype 2b NS5B polymerase assessed as inhibition of [3H]UTP incorporation after 2 hrs by scintillation counting; parameters: species or system Hepatitis C virus subtype 2b

IC50 (Hepatitis C virus [1]): > 200 µM
Structure (SMILES): O=C1CCN(c2cccc(C(F)(F)F)c2)C(=O)N1

IC50 (Hepatitis C virus [1]): 6.7 µM
Structure (SMILES): COc1cc(N(C)C)c(N2CCC(=O)NC2=O)cc1C(C)(C)C

IC50 (Hepatitis C virus [1]): 6.5 µM
Structure (SMILES): COc1cc(NC(C)=O)c(N2CCC(=O)NC2=O)cc1C(C)(C)C

IC50 (Hepatitis C virus [1]): 7.6 µM
Structure (SMILES): CC(C)(C)c1cc(N2CCC(=O)NC2=O)ccc1O

IC50 (Hepatitis C virus [1]): 1.7 µM
Structure (SMILES): COc1cc(N)c(N2CCC(=O)NC2=O)cc1C(C)(C)C

Structure (SMILES): COc1cc([N+](=O)[O-])c(N2CCC(=O)NC2=O)cc1C(C)(C)C
IC50 (Hepatitis C virus [1]): 0.4 µM | IC50 [2]: 0.58 µM | IC50 [3]: 0.36 µM | IC50 [4]: > 200 µM | IC50 [5]: > 200 µM | EC50 (Hepatitis C virus [6]): 0.84 µM | CC50 [7]: > 50 µM | Ratio IC50 [8]: > 100 | Ratio IC50 [9]: 24 | Ratio IC50 [10]: 41 | Ratio IC50 [11]: 5 | Ratio IC50 [12]: 5 | IC50 [13]: > 200 µM

IC50 (Hepatitis C virus [1]): 6.4 µM
Structure (SMILES): COc1ccc(N2CCC(=O)NC2=O)cc1C(C)(C)C

IC50 (Hepatitis C virus [1]): 7.4 µM
Structure (SMILES): COc1c(Br)cc(N2CCC(=O)NC2=O)cc1C(C)(C)C

IC50 (Hepatitis C virus [1]): 47 µM
Structure (SMILES): CC(C)(C)c1cccc(N2CCC(=O)NC2=O)c1

IC50 (Hepatitis C virus [1]): > 200 µM
Structure (SMILES): COc1c(Br)cc(N2CCC(=O)N(C)C2=O)cc1C(C)(C)C
